These are literature values, as cited in patent US20070173464A1, “Oral ribavirin pharmaceutical compositions” (Flamel Technologies, priority 2005, published 2007).

Converted amounts (≈) assume the structure as drawn.

The test system of data set [1] is Hepatitis C Virus (HC). Particulars: up to 1200 mg per day, typically 48 weeks, in conjunction with interferon or long acting pegylated interferon; genotype I patients.

`NC(=O)c1ncn([C@@H]2O[C@H](CO)[C@@H](O)[C@H]2O)n1` [Ribavirin, 1-beta-D-ribofuranosyl-1,2,4-thiazole-3-carboxamide]: the water solubility was 140 g/L (≈ 573 mM). Further, the sustained virologic response in data set [1] is on record as 30 to 55 % of genotype I patients.
